Publication PMC10020958, “2-(4-Fluorophenyl)-1H-benzo[d]imidazole as a Promising Template for the Development of Metabolically Robust, α1β2γ2GABA-A Receptor-Positive Allosteric Modulators” (ACS Chemical Neuroscience, 2023)
≈ marks a conversion by molar mass, not a printed value.

How the values were obtained:
[1] = biological target: GABA-A receptor (benzodiazepine site, α1/γ2 interface); test: Radioligand binding assay for the GABA-A receptor ([3H]-flunitrazepam displacement, rat brain homogenate); conditions: pKi = -log Ki, n.a. = no affinity
[2] = system: HepG2 human hepatoma cells; test: Hepatotoxicity assay: cell viability (PrestoBlue) and cell membrane damage (ToxiLight); assay type: cell-based; conditions: 24 h treatment; for cytotoxic effect in HepG2 cells: concentrations up to 50 μM
Method: (§1) Given that drug-induced liver injury (DILI) is the leading cause of the termination of potential drug candidates,[21],[22] two of the main molecules 9 and 23 were further assayed in HepG2 human hepatoma cells to assess their potential risk of toxicity.[23] The hepatotoxicity of the compounds tested was evaluated using two methods: cell viability (Figure 8A,B) and mitochondrial membrane potential assay (Figure 8C).
(§2) Figure 8 Hepatotoxicity assays for selected lead molecules. Cell viability (A) was measured using the PrestoBlue reagent, cell membrane damage (B) was assessed using the ToxiLight bioassay, and mitochondrial membrane potential (C) was assessed using a JC-1 probe. Assays performed after 24 h treatment with tested compounds and a reference alpidem. Results are presented as mean % of untreated controls ± S.D. (n = 3). Differences among groups were evaluated by one-way ANOVA followed by post-hoc analysis (Dunnett’s multiple comparison tests) and were considered statistically significant if p < 0.05 (****p < 0.0001, ***p < 0.001, **p < 0.01, and *p < 0.05). […]
(§3) Cell viability was measured using the PrestoBlue reagent (Thermo Fisher). […] Metabolically active cells are capable of reducing the PrestoBlue reagent, with the colorimetric changes used as an indicator to quantify the viability of cells in culture. This change can be determined by measuring the fluorescence. […] After 30 min of incubation at 37 °C, the fluorescence intensity (EX 530; EM 580 nm) was measured by using a multifunction plate reader (POLARstar Omega, BMG Labtech, Germany). Viability values were calculated as a percentage of live cells with respect to the control sample. Cell membrane damage was measured using the bioluminescent ToxiLight bioassay (Lonza). It quantitatively measures the release of adenylate kinase (AK) from the membranes of damaged cells. […] The enzyme actively phosphorylates ADP, and the resultant ATP is then measured using the bioluminescent firefly luciferase reaction with the ToxiLight reagent. […]

[3] = biological target: T1, α1β2γ2-GABA-A receptors stably expressed in HEK293 cells (Homo sapiens, UniProt P14867+P18507); test: Electrophysiological studies, automated patch clamp (QPatch16X), positive allosteric modulation of GABA-induced Cl- currents; assay type: cell-based; conditions: compound 1 μM co-applied with 10 μM GABA; GABA alone = 100%; mean ± SEM
T1 construct: expressed in transfected cells
Method: Given that ligands binding within the α1/γ2 interface act as PAMs, we selected the most promising 1H-benzo[d]imidazoles (9, 15, 16, 23, and 29) for electrophysiological studies using automated patch clamp recordings (QPatch16X, Sophion). We expected that 1H-benzo[d]imidazoles would potentiate GABA-induced Cl^– currents rather than inducing ion passage alone.
Electrophysiology studies were performed using the QPatch16X automatic patch clamp platform (Sophion Biosciences) and HEK293 cells, stably expressing the α1β2γ2 subunits of the human GABA-A receptor. Prior to the assay recordings, the cells were transferred from the culture flask through a TrypLE Express solution (LifeTechnologies) and resuspended in serum-free media. The cells were placed in the lidless microtube, located onboard the automated electrophysiology instrument. The cells were then automatically relocated to a built-in centrifuge, spun down, and washed in Ringer’s extracellular solution. The cells were transferred to the pipetting wells of a single-use 16-channel planar patch chip plate (QPlate 16X), and gigaseals were formed upon implementation of a combined suction/voltage protocol. Subsequent suction induced whole-cell configuration. The chloride currents passed via the GABA-A receptor were recorded for 7 s after single addition of a tested molecule. Through whole-cell recording, the holding potential was set to −90 mV. The assay was performed at room temperature. The extracellular solution was composed of the following ingredients: consisted of 2 mM […], 145 mM NaCl, 10 mM HEPES, CaCl2, 1 mM MgCl2, 10 mM glucose (pH 7.4, 300 mOsm), and intracellular solution contained 140 mM CsF, 1 mM EGTA, 5 mM CsOH, 10 mM HEPES, and 20 mMNaCl (pH 7.2, 320 mOsm). The screening assays were established in the instrument software by sequential application of 10 μM GABA (reference agonist AG1), 1 μM examined molecule compounds, and compounds co-administered with 10 μM GABA (T2); second addition of 10 μM GABA (AG2); 10 μM bicuculline (reference antagonist) along with 10 μM GABA (ATG). The intermission among the addition of particular molecules was 60 s. In a typical procedure, 5 μL of ligand was added to the cells, followed by 3 s of washout with an extracellular solution (two times […]). For the allosteric modulator/antagonist mode, the cells were preincubated with the tested compound alone for 50 s, followed by the addition of the reference agonist. The data obtained were processed using QPatch Assay Software (v5.0, Sophion Biosciences) and are represented as the mean of at least three independent experiments performed on separate cells. The validation criteria for a single test were current amplitude evoked by adding GABA greater than 500 pA and a change between cells’ response to GABA applications (AG1 and AG2) not greater than 25%. The relative compound efficiency was analyzed as the baseline-corrected ratio of maximal current amplitudes induced by the addition of tested compounds and reference agonist (T1-ATG/AG1-ATG or T2-ATG/AG1-ATG). The obtained raw current recordings were normalized and represented as % of the current amplitude induced by a reference agonist (GABA = 100%) using the QPatch Assay Software (v5.0, Sophion Biosciences).[24]

[4] = system: HepG2 human hepatoma cells; test: Hepatotoxicity assay: mitochondrial membrane potential (JC-1 probe); assay type: cell-based; conditions: 100 μM, 24 h treatment
Method: as §1, §2, §3

in vitro = conditions: human; for remaining at 2 h, 50 μM: % remaining (parent compound)
Method: Given that our goal was to obtain metabolically stable scaffolds, we selected 9 and 23 as representatives of each series for metabolic stability studies using human liver microsomes (HLMs). In parallel, we interrogated the quality of 1H-benzo[d]imidazole derivatives by confronting them head-to-head with the comparator drug alpidem.
The in vitro evaluation of the metabolic stability of the selected compound was performed using human liver microsomes (HLMs) (Sigma-Aldrich, St. Louis, MO, USA) as described previously.[25] The reaction mixture contained 50 μM of tested molecules HLMs (1 mg/mL) in 10 mM tris–HCl buffer. Following 5 min of preincubation, 50 μL of the NADPH Regeneration System (Promega, Madison, WI, USA) was added to induce the reaction. Next, the resulting reaction mixture was incubated at 37 °C for 120 min. The reaction was quenched with the addition of 200 μL of cold extra pure methanol and then centrifuged at 14,000 rpm for 15 min. The resulting supernatant was analyzed using an LC/MS Waters ACQUITY TQD system (Waters, Milford, USA).

[5] = Thermodynamic solubility in phosphate buffer pH = 7.4; assay type: physicochemical; conditions: phosphate buffer (Dulbecco's phosphate-buffered saline), aqueous buffer, thermodynamic from solid, phosphate buffer pH = 7.4, 20 °C
Method: Quantitative HPLC analyses were performed on a Waters Alliance e2695 Separations Module (Waters, Milford, CT, USA) with a detector 2998 Photodiode Array (PDA) detector (Waters, Milford, CT, USA) and the Chromolithe SpeedROD RP-18e 50–4.6 mm column (Merck, KGaA, Darmstadt, Germany). The column was kept at 30 °C. The conditions applied are as follows: eluent A (water/0.1% formic acid), eluent B (MeCN/0.1% formic acid), a flow rate of ,5 mL/min, a gradient of 0–100% B over 3 min, and an injection volume of 10 μL. Each sample was injected in triplicate. […] Standard solutions of the tested compounds and the reference compound were prepared in methanol at a concentration of 1 mg/mL. […] Next, 2 mg of the compound tested was dissolved in 1 mL of Dulbecco’s phosphate-buffered saline (DPBS), and the mixture was constantly agitated at 20 °C for 24 h in a thermoshaker. After that time, the mixtures were filtered through a cellulose acetate syringe filter (pore size 0.22 μm) and transferred to a chromatographic vial and analyzed using HPLC. For quantification, areas under the peaks of the investigated compounds on DAD chromatograms were used. Solubility was determined using the calibration curves.

T1 sequence (P14867 28-456): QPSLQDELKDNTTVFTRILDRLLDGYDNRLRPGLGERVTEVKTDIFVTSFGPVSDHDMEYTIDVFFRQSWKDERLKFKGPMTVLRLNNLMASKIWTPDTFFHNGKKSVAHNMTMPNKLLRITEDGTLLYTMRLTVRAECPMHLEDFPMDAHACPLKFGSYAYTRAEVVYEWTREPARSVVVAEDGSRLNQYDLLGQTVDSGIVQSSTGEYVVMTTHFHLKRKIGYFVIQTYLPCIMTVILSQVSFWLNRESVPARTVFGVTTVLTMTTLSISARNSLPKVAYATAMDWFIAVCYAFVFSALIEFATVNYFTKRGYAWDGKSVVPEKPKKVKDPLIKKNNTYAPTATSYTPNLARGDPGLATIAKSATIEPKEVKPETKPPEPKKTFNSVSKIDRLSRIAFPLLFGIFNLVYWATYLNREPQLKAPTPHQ
T1 sequence (P47870 25-512 partner limits assumed): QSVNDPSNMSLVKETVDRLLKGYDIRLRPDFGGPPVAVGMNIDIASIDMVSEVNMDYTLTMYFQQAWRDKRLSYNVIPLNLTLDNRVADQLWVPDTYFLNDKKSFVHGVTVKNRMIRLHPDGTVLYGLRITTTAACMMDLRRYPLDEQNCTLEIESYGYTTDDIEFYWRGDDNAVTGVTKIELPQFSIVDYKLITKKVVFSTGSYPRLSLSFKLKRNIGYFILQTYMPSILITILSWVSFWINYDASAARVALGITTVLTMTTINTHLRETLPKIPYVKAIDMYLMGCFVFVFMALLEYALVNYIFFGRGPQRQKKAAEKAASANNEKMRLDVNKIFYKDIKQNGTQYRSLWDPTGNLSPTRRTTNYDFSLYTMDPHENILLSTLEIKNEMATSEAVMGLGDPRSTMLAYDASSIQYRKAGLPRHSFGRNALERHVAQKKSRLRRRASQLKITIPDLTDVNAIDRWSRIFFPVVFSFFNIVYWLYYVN
T1 sequence (P18507 40-475): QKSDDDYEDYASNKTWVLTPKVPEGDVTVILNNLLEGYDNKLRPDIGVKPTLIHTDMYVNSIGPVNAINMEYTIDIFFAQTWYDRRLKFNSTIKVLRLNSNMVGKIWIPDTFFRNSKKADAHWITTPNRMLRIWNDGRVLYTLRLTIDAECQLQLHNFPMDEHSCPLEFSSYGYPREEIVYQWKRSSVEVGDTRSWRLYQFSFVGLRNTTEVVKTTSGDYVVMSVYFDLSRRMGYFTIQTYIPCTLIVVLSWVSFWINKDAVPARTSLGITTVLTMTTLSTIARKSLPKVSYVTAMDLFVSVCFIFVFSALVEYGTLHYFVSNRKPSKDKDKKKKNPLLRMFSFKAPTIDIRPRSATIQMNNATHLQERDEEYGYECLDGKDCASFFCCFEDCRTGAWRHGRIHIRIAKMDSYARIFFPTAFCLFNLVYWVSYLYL

In the case of NC(=O)c1cccc(NC(=O)Cn2c(-c3ccc(F)cc3)nc3ccccc32)c1 [Compound 23, 3-(2-(2-(4-Fluorophenyl)-1H-benzo[d]imidazole-1-yl)acetamido)benzamide], the “pKi GABA-A” value [1] is reported as 6.05, the “cytotoxic effect in HepG2 cells” value [2] is reported as “did not induce any significant cytotoxic effect” and the “% of 10 μM GABA response” value [3] is reported as 132 ± 13,2%. The “mitochondrial membrane potential (MMP) of HepG2 cells” value (“mitochondrial membrane potential” for short) [4] was “did not observe mitochondrial membrane potential (MMP) attenuation”, the “formation of hydroxylated metabolite (M1)” value (in vitro; 120 min, 50 μM) was 10.87% and the remaining at 2 h, 50 μM (in vitro; microsomes) was 89.1%. The solubility at 24 h [5] was 0.074 ± 0.00081 mg/mL (≈ 191 µM).

In the case of CCCN(CCC)C(=O)Cc1c(-c2ccc(Cl)cc2)nc2ccc(Cl)cn12 [alpidem, reference compound], the “hepatotoxicity in HepG2 cells” value ([2]; at 100 and 50 μM) is reported as “noticeable hepatotoxicity”, the “mitochondrial membrane potential” value [4] is reported as “induced mitochondrial dysfunction” and the remaining at 2 h, 50 μM (in vitro; microsomes) is reported as 38.6%.

With Cc1ccc2nc(-c3ccc(F)cc3)n(CC(=O)N3CCCC3)c2c1 [Compound 9, 2-(2-(4-Fluorophenyl)-6-methyl-1H-benzo[d]imidazole-1-yl)-1-(pyrrolidin-1-yl)ethan-1-one] the “pKi GABA-A” value [1] was 5.5, the “cytotoxic effect in HepG2 cells” value [2] was “did not induce any significant cytotoxic effect” and the “% of 10 μM GABA response” value [3] was 172 ± 12,5%. For the same molecule, the “mitochondrial membrane potential” value [4] was “did not observe mitochondrial membrane potential (MMP) attenuation”, the “% remaining (parent compound)” value (in vitro; microsomes, 2 h, 50 μM) was 90.12% and the remaining at 2 h, 50 μM (in vitro; microsomes) was 90%. It also gave a solubility at 24 h [5] of 0.05 ± 0.00054 mg/mL (≈ 148 µM).
